Values of other authors in patent US9775839B2, “2-pyrazine carboxamides as spleen tyrosine kinase inhibitors” (Merck Sharp & Dohme Corp., priority 2014, dated 2017).

Legend:
[1] = tested on: PGD2; settings: dosed intranasally, allergic rhinitis, phase I/II study
[2] = allergic rhinitis, phase II clinical trial

Structure (SMILES): Oc1cccc(Nc2ncc(F)c(Nc3cccc(O)c3)n2)c1 [Example R112]
- change in PGD2 [1]: statistically significant decrease
- clinical safety [1]: safe across a range of indicators
- efficacy versus placebo [2]: lack of efficacy
